In patent US9962391B2, “Composition and method for compounded therapy” (CMPD LICENSING, LLC, priority 2011, dated 2018):

Experiments:
[1] = Forced degradation study (heat and acid) on Meloxicam/Gabapentin/Lidocaine/Prilocaine Cream 0.09%/2.5%/2.15%/2.15%; conditions: untreated, heat treated and acid treated samples, undiluted extracts
Procedure: (§1) The column temperature was 50° C.
as §1

[2] = 198 Day Potency Test of transdermal cream including meloxicam, lamotrigine, lidocaine, and prilocaine; assay type: physicochemical; conditions: 198 days, stored at approximately 20° C. to 25° C., in cream, HPLC; for % of EXP.: relative to expected amount
Procedure: (§2) The sample was stored in approximately 20° C. to 25° C. (68° F. to 77° F.) conditions, and contained one large white tube with cream in a clear bag.

[3] = 100 Day Potency Test of transdermal cream including meloxicam, topiramate, lidocaine, and prilocaine; assay type: physicochemical; conditions: 100 days, stored at approximately 20° C. to 25° C., in cream, HPLC; for % of EXP.: relative to expected amount
Procedure: as §2

| SMILES | Degradation seen in Total Ion Chromatograms (TIC) [1] | Results (amount of analyte found) [2] [%] | % of EXP. [2] [%] | Results (amount of analyte found) [3] [%] | % of EXP. [3] [%] |
| --- | --- | --- | --- | --- | --- |
| NCC1(CC(=O)O)CCCCC1 [Gabapentin] | major degradant at 1.18 minute was caused both by acid and by heat |  |  |  |  |
| Nc1nnc(-c2cccc(Cl)c2Cl)c(N)n1 [Lamotrigine] |  | 2.463 | 98.5 |  |  |
| CCN(CC)CC(=O)Nc1c(C)cccc1C [Lidocaine] |  | 1.927 | 96.4 | 1.700 | 85.0 |
| CCCNC(C)C(=O)Nc1ccccc1C (stereo not shown) [Prilocaine] |  | 2.118 | 105.9 | 1.899 | 95.0 |
| CC1(C)O[C@@H]2[C@@H](CO[C@@]3(COS(N)(=O)=O)OC(C)(C)O[C@@H]23)O1 [Topiramate] |  |  |  | 2.368 | 94.7 |
